ChEMBL document CHEMBL1201862, “PubChem BioAssay data set” (2004)
Calls of active or inactive are those of the source. Cut-off read from the data, not from the text of the source, for most assays here: actives have a measured EC50 and inactives only a lower limit.

What was measured:
[1] = reduction of Shn3 3'UTR-driven luciferase in osteoblasts – cell-based, Clone20 osteoblasts, firefly luciferase, cherry-picked, dose response (AID 624132); assay type: functional;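 note: firefly luciferase luminescence from reporter carrying the Shn3 3'UTR in osteoblasts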
[2] = biological target: T1, RNA-binding protein pos-1 (Caenorhabditis elegans, UniProt G5EF15); assay: disruptors of C. elegans POS-1 RNA interaction – biochemical, fluorescence polarization, dose response (AID 1964);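 note: purified POS-1 fused to maltose binding protein made in E. coli; potency of compounds blocking POS-1 binding to fluorescent RNA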
T1 sequence (G5EF15 whole entry): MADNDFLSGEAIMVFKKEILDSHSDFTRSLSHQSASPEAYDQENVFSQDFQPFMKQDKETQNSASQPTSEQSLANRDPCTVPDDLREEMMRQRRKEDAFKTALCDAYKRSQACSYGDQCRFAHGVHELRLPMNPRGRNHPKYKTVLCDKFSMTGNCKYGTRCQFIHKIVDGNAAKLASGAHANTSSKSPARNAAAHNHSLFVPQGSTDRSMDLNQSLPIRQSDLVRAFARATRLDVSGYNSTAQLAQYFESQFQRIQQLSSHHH

[3] = biological target: T2, Zinc finger protein mex-5 (Caenorhabditis elegans, UniProt Q9XUB2); assay: potency of MEX-5 RNA-binding blockers – biochemical, C. elegans, fluorescence polarization, dose response (AID 1960)
T2 sequence (Q9XUB2 whole entry): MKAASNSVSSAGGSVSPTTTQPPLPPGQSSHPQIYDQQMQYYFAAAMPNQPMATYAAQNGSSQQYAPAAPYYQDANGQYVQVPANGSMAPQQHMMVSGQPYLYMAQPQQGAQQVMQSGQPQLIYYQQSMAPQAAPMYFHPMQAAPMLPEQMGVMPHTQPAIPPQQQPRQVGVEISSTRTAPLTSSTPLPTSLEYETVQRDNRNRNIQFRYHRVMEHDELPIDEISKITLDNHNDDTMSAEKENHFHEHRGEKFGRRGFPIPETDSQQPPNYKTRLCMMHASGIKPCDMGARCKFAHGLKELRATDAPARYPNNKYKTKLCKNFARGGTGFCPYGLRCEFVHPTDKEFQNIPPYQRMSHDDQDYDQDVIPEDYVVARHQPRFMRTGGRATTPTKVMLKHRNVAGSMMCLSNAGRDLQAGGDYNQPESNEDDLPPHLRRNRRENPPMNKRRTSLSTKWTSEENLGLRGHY

BJ [4] = assay: BJ-TERT fibroblast viability loss – cell-based, RAS-independent, luminescence, dose response (AID 1933); assay type: functional; conditions: Homo sapiens
BJ [5] = assay: cells; assay type: functional, cell-based; conditions: Homo sapiens
BJ [6] = assay: BJ-TERT-LT-ST fibroblast viability loss – cell-based, RAS-independent, luminescence, dose response (AID 1935); assay type: functional; conditions: Homo sapiens;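 note: BJ fibroblasts immortalized with TERT plus LT and ST oncogenes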
[7] = DRD fibroblast viability loss – cell-based, non-viral oncogenic, luminescence, dose response (AID 1934); assay type: functional; conditions: Homo sapiens
[8] = biological target: Luciferin 4-monooxygenase (Photinus pyralis, UniProt P08659); assay: inhibition of purified Photinus pyralis luciferase – biochemical, luminescence, dose response (AID 1891)
[9] = Luminescence Cell-Based Dose Confirmation HTS to Identify Inhibitors of Platelet Dense Granule Release. [Related pubchem assays: 1663 (Primary HTS), 1678 (Summary of Project)]; assay type: functional
[10] = P. falciparum Dd2 growth inhibitors, dose response, SYBR Green, cherry-picked samples (AID 1159567); assay type: functional, cell-based
Protein RecA = biological target: T3, Protein RecA (Mycobacterium tuberculosis, UniProt P9WHJ3); assay: Fluorescence Cell-Free Homogeneous Dose Retest to Identify Inhibitors of RecA-Intein Splicing Activity. [Related pubchem assays (depositor defined):AID2097, AID2223, AID489010, AID492950]; assay type: functional
T3 sequence (P9WHJ3 whole entry): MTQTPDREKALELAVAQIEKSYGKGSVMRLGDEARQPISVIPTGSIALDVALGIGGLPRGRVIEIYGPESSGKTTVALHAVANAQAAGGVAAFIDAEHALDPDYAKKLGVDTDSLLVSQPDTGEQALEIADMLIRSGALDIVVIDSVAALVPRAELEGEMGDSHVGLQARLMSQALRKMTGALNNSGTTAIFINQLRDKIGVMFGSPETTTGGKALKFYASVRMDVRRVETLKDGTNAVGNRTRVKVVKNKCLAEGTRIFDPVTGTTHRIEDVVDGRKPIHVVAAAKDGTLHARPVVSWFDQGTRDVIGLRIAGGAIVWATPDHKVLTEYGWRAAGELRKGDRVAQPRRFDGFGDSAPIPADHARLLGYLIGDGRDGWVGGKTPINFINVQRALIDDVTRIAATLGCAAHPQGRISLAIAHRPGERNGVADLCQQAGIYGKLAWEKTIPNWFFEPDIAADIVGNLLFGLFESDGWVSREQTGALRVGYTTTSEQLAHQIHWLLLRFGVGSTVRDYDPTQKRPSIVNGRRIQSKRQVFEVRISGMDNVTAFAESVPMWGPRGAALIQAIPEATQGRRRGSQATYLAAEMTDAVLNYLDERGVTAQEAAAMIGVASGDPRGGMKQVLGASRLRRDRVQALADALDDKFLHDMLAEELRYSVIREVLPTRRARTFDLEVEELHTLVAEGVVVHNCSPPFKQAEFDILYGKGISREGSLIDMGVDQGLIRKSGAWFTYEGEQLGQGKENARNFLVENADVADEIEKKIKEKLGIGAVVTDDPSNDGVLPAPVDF

[11] = biological target: T4, Replicative DNA helicase DnaB (Mycobacterium tuberculosis, UniProt P9WMR3); assay: DnaB intein splicing inhibitors, dose response, biochemical, cell-free fluorescence (AID 449749); assay type: functional
T4 sequence (P9WMR3 whole entry): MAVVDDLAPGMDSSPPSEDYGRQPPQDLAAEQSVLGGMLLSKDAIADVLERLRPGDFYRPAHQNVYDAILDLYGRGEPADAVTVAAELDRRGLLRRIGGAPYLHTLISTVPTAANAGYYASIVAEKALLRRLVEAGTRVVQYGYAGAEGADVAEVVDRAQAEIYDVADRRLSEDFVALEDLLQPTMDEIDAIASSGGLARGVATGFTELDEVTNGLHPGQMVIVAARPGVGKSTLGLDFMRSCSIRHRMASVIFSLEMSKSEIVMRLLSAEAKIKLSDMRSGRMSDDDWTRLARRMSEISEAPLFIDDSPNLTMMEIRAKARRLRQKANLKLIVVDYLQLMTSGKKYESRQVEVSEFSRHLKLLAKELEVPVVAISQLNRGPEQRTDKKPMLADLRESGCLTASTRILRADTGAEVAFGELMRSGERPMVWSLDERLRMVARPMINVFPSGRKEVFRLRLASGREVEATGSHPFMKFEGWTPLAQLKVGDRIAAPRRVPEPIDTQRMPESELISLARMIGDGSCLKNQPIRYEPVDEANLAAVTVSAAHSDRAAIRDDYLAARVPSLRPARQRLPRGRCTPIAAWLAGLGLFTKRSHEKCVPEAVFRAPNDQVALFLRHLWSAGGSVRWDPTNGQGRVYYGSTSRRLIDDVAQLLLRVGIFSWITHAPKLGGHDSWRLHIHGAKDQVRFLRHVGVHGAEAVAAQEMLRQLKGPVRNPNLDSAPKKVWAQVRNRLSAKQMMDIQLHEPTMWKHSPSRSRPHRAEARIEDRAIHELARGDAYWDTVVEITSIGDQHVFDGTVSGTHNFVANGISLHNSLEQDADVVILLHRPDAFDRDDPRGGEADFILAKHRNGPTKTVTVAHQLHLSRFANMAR

[12] = luciferase reporter signal suppression in cells – H4 neuroglioma cells, luminescence, dose response (AID 1990); assay type: functional, cell-based
[13] = Luminescence Cell-Based Dose Response HTS to Identify Inhibitors of 5'UTR Stem-Loop Driven Prion Protein mRNA Translation in H4 Neuroglioblastoma Cells. [Related pubchem assays: 1827 (Project Summary), 1813 (Primary HTS)]; assay type: functional
[14] = alpha-synuclein stem-loop luciferase translation blockers – H4 neuroglioma cells, luminescence, confirmation (AID 1988); assay type: functional, cell-based
INS1 = assay: INS-1E survival protection against cytokine death – cell-based, luminescence, retest, dose response (AID 449756); assay type: functional; conditions: Rattus norvegicus;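 note: cell death triggered by IL-1 beta plus TNF-alpha plus IFN-gamma mixture; protective hits raise ATP signal compared with cytokine alone wells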
[15] = NIH3T3 cell viability loss – ATP luminescence, mouse fibroblasts, counter-screen, dose response (AID 2010); assay type: functional, cell-based;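 note: cells exposed to compound for about 90 hours before reading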
[16] = Trypanosoma cruzi growth suppression in host cells – NIH3T3 host cells, beta-gal luminescence, confirmation (AID 2044); assay type: functional, cell-based;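 note: intracellular parasites grown in NIH/3T3 mouse fibroblasts as host cells; luminescent beta-galactosidase reporter signal from transgenic T. cruzi replicating inside host cells; inhibitors lower the luminescence signal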

Chain of Luciferin 4-monooxygenase (P08659 whole entry): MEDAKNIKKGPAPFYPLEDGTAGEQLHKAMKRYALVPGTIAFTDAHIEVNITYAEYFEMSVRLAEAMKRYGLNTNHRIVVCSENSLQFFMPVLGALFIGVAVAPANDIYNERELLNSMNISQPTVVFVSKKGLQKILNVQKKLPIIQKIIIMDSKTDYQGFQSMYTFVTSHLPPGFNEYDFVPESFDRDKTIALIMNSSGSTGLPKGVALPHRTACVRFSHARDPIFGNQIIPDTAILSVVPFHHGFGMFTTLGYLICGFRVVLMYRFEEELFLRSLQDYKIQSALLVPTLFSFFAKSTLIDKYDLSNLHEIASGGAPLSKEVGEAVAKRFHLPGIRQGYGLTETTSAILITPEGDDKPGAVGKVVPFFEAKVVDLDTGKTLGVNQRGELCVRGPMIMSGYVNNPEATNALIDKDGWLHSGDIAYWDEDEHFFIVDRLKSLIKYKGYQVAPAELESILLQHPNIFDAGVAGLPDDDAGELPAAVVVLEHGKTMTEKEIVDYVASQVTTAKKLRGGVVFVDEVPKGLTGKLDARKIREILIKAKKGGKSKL

SMILES: CCOC(=O)Cn1c(S(=O)(=O)Cc2ccccc2Cl)nc(-c2ccccc2)c1-c1ccccc1
- AC50 [1]: 9.29 µM (active)

SMILES: N=c1c(C(=O)NCC2CCCO2)cc2c(=O)n3ccccc3nc2n1Cc1ccccc1Cl (stereo not drawn)
- EC50 [2]: 104 µM (active)
- EC50 [3]: 195 µM (active)

SMILES: Cc1nn(C)c(Oc2ccccc2)c1CCNC(=O)CCl
- EC50 (BJ [4]): 28.9 µM (active)
- EC50 (BJ [5]): > 150 µM (not active)
- EC50 (BJ [6]): > 150 µM (not active)
- EC50 [7]: > 150 µM (not active)

SMILES: N#Cc1cc2c(nc1SCC(=O)Nc1sc3c(c1C#N)CCC3)CCC2
- EC50 (BJ [4]): 98.7 µM (active)
- EC50 (BJ [5]): > 150 µM (not active)
- EC50 (BJ [6]): > 75 µM (not active)
- EC50 [7]: 32.8 µM (active)

SMILES: CSc1nnc(N2C(=O)C(O)=C(C(=O)c3ccco3)C2c2ccc(F)cc2)s1 (stereo not drawn)
- EC50 [8]: > 112 µM (not active)
- EC50 [2]: > 150 µM (not active)
- EC50 [9]: > 112 µM (not active)
- EC50 [3]: 82.8 µM (active)

SMILES: O=C1CN(S(=O)(=O)c2ccccc2)C[C@@H]2[C@H](c3ccc(C#CCc4ccccc4)cc3)[C@@H](CO)N12
- AC50 [10]: 4.23 µM (active)

SMILES: CCOC(=O)Cc1n[nH]c2c1C(c1cc(OC)ccc1OC)C(C#N)=C(N)O2 (stereo not drawn)
- EC50 (Protein RecA): 13.3 µM (active)
- AC50 [11]: 73.9 µM (active)

SMILES: COc1ccc(C2C(C#N)=C(N)OC3=C2C(=O)CC(C)C3)c(OC)c1OC (stereo not drawn)
- EC50 [2]: > 300 µM (not active)
- EC50 [3]: > 300 µM (not active)

SMILES: O=C(C[C@@H]1CC[C@@H]2[C@H](COC[C@@H](O)CN2S(=O)(=O)c2ccccc2)O1)NCc1ccc(-c2ccccc2)cc1
- AC50 [10]: 6.32 µM (active)

SMILES: O=C(NCc1ccccc1)C1=C[C@@H](c2csc3ccccc23)C[C@@H](OCCCCO)O1
- EC50 [12]: 11.2 µM (active)
- EC50 (BJ [4]): 22.8 µM (inconclusive)
- EC50 (BJ [5]): 35.8 µM (active)
- EC50 (BJ [6]): > 150 µM (not active)
- EC50 [13]: 10.5 µM (active)
- EC50 [7]: 28.4 µM (active)
- EC50 [14]: 9.75 µM (active)
- AC50 (INS1): 1.43 µM (active)

SMILES: O=[N+]([O-])c1c(O)nc(O)nc1/C=C/c1cccnc1
- EC50 (Protein RecA): > 380 µM (inactive)
- AC50 [11]: > 380 µM (inactive)

SMILES: Cc1ccc(/C=C/C(=O)c2ccc(N3CCOCC3)cc2)s1
- EC50 [2]: > 300 µM (not active)
- EC50 [3]: > 300 µM (not active)

SMILES: Cc1nc2sc3c(c2c(=O)n1NC(=O)CCl)CCCC3
- EC50 (BJ [4]): 30.8 µM (active)
- EC50 (BJ [5]): > 150 µM (not active)
- EC50 (BJ [6]): > 150 µM (inconclusive)
- EC50 [7]: > 150 µM (not active)

SMILES: COCCCNC(=O)C(C#N)c1nc2ccccc2nc1N1CCCC1 (stereo not drawn)
- EC50 [2]: 23.8 µM (active)
- EC50 [3]: > 300 µM (inconclusive)

SMILES: CCCCS/C(=C(/C#N)C(N)=O)c1cc2c([nH]1)CCCC2
- EC50 (Protein RecA): 15.6 µM (active)
- AC50 [11]: > 380 µM (inactive)

SMILES: Cc1ccc(N/C=C2/Sc3ccccc3NC2=O)cc1
- EC50 [15]: > 30 µM (not active)
- EC50 [16]: 0.806 µM (active)
- EC50 [2]: > 300 µM (not active)
- EC50 [3]: > 300 µM (inconclusive)

SMILES: COc1cc(CN2[C@@H]3CNC[C@H]2[C@@H]3c2ccc(-c3ccccc3)cc2)cc(OC)c1
- AC50 [10]: 6.99 µM (active)

SMILES: O=C1NC(=O)N(c2ccccc2)C(=O)/C1=C\NN1C(=O)c2cccc3cccc(c23)C1=O
- EC50 [2]: > 300 µM (not active)
- EC50 [3]: 72 µM (active)

SMILES: C[C@H]1CN([C@@H](C)CO)S(=O)(=O)c2ccc(C#Cc3ccccc3)cc2O[C@H]1CN(C)C(=O)C1CC1
- AC50 [10]: 3.95 µM (active)

SMILES: NC(=O)c1sc2nnc(-c3ccccc3)c(-c3ccccc3)c2c1N
- EC50 [2]: > 300 µM (not active)
- EC50 [3]: > 300 µM (not active)

SMILES: Cc1ccc(/C=N/NC(=O)c2nnn(-c3nonc3N)c2-c2cccs2)cc1
- EC50 [2]: > 300 µM (not active)
- EC50 [3]: > 300 µM (not active)

SMILES: CO[C@@H]1CN(C)C(=O)c2cc(NC(=O)Nc3cccc(Cl)c3)ccc2OC[C@H](C)NC[C@H]1C
- AC50 [10]: 6.78 µM (active)

SMILES: COC(=O)CC1=NN(c2ccc(OC)cc2)C(=O)C1
- EC50 (Protein RecA): 13.1 µM (active)
- AC50 [11]: 54.9 µM (active)

SMILES: Cc1nn(-c2ccccc2)c2c1C(c1ccccc1)C(C#N)=C(N)O2 (stereo not drawn)
- EC50 (Protein RecA): 9.07 µM (active)
- AC50 [11]: 16.8 µM (active)
